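Five compound concentrations were applied to cells in 96-well plates for 48 hours; endpoints were derived by simple linear interpolation of the resulting dose-response curve. Abbreviation: GI50, concentration required for 50% inhibition of growth.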 Active and inactive are the calls of the source. Cut-off read from the data, not from the text of the source: active = GI50 up to about 1.1 µM and inactive = higher.
Assays:
Test in all cases: DTP human tumour cell line panel, 48 h
LXFL 529 = tested on: LXFL 529
XF498 = tested on: XF498
KM-20L2 = tested on: KM-20L2
DLD-1 = tested on: DLD-1
M19-MEL = tested on: M19-MEL
DMS-114 = tested on: DMS-114
RXF 631 = tested on: RXF 631
HOP-18 = tested on: HOP-18
DMS-273 = tested on: DMS-273

Compound	GI50 (LXFL 529)	GI50 (XF498)	GI50 (KM-20L2)	GI50 (DLD-1)	GI50 (M19-MEL)	GI50 (DMS-114)	GI50 (RXF 631)	GI50 (HOP-18)	GI50 (DMS-273)
CN(C)c1ccc(/C=C/C(=O)c2ccccc2)cc1Br	15.1 µM (inactive)	16.3 µM (inactive)	25.1 µM (inactive)	18.9 µM (inactive)	18.7 µM (inactive)	17.3 µM (inactive)	–	–	–
COC(=O)C1CC(OC(C)=O)C=C2C(=O)CCC21 (centres undefined)	15.5 µM (inactive)	–	30.2 µM (inactive)	14.5 µM (inactive)	22.4 µM (inactive)	15 µM (inactive)	27.5 µM (inactive)	20.5 µM (inactive)	17.2 µM (inactive)
Cn1c(CCC#N)nc2ccc(Br)cc2c1=O	> 100 µM (inactive)	> 100 µM (inactive)	> 100 µM (inactive)	> 100 µM (inactive)	–	> 100 µM (inactive)	> 100 µM (inactive)	–	–
COc1cc(/C=N/c2nncs2)ccc1O	> 100 µM (inactive)	> 100 µM (inactive)	> 100 µM (inactive)	–	> 100 µM (inactive)	> 100 µM (inactive)	> 100 µM (inactive)	> 100 µM (inactive)	> 100 µM (inactive)
COc1cc(/C=C(\C#N)C(=O)c2ccccc2)cc(OC)c1OC	> 100 µM (inactive)	–	> 100 µM (inactive)	> 100 µM (inactive)	> 100 µM (inactive)	> 100 µM (inactive)	–	> 100 µM (inactive)	> 100 µM (inactive)
CCC(=O)N1C(=O)OCC1C(C)C (centres undefined)	> 100 µM (inactive)	> 100 µM (inactive)	> 100 µM (inactive)	> 100 µM (inactive)	> 100 µM (inactive)	> 100 µM (inactive)	> 100 µM (inactive)	15.8 µM (inactive)	> 100 µM (inactive)
Cc1cc2c(=O)cc(-c3ccc(C(=O)O)cc3)oc2c(C(N)=O)c1C	> 100 µM (inactive)	–	> 100 µM (inactive)	> 100 µM (inactive)	> 100 µM (inactive)	> 100 µM (inactive)	> 100 µM (inactive)	–	> 100 µM (inactive)
CCCCC(C(=O)CCC(=O)Nc1ccc(Cl)cc1)C(=O)C(C)C (centres undefined)	92.7 µM (inactive)	> 100 µM (inactive)	> 100 µM (inactive)	> 100 µM (inactive)	> 100 µM (inactive)	> 100 µM (inactive)	> 100 µM (inactive)	–	> 100 µM (inactive)
Cc1cccc(C)c1NC(=O)C(=O)C1C(=O)NC(=O)NC1=O	> 100 µM (inactive)	> 100 µM (inactive)	> 100 µM (inactive)	> 100 µM (inactive)	> 100 µM (inactive)	> 100 µM (inactive)	> 100 µM (inactive)	> 100 µM (inactive)	> 100 µM (inactive)
COC(=O)c1c(OC)cccc1C(=O)O	> 100 µM (inactive)	–	> 100 µM (inactive)	–	> 100 µM (inactive)	> 100 µM (inactive)	> 100 µM (inactive)	> 100 µM (inactive)	> 100 µM (inactive)
CC1CC(=O)Nc2ccc(Cl)cc2N1C(=O)CN1CCC(CCCCN(C)C)CC1 (centres undefined)	> 100 µM (inactive)	–	43.2 µM (inactive)	> 100 µM (inactive)	–	> 100 µM (inactive)	> 100 µM (inactive)	> 100 µM (inactive)	> 100 µM (inactive)
CC1CN1c1c(C(=O)/C=C/c2ccccc2)c(-c2ccccc2)nn(C)c1=O (centres undefined)	15.3 µM (inactive)	–	19.1 µM (inactive)	15.2 µM (inactive)	17.3 µM (inactive)	23 µM (inactive)	–	26.2 µM (inactive)	16.7 µM (inactive)
COc1ccc2c3ccc4c(c3n(C)c2c1)C(=O)c1ccccc1C4=O	78 µM (inactive)	–	39.8 µM (inactive)	> 100 µM (inactive)	> 100 µM (inactive)	> 100 µM (inactive)	–	> 100 µM (inactive)	> 100 µM (inactive)
COC(=O)C(=O)C1(CCC(C)=O)c2ccccc2-c2ccccc21	47.1 µM (inactive)	–	> 100 µM (inactive)	66.2 µM (inactive)	> 100 µM (inactive)	65.5 µM (inactive)	–	71.6 µM (inactive)	43.6 µM (inactive)
O=C(c1cc(O)ccc1O)c1ccccc1C(Cl)(Cl)Cl	61.4 µM (inactive)	34.9 µM (inactive)	> 100 µM (inactive)	–	90.8 µM (inactive)	32 µM (inactive)	–	> 100 µM (inactive)	> 100 µM (inactive)
CCc1cccc(CC)c1NC(=O)C(=O)Cc1nc2ccccc2o1	> 100 µM (inactive)	–	> 100 µM (inactive)	> 100 µM (inactive)	> 100 µM (inactive)	> 100 µM (inactive)	–	> 100 µM (inactive)	–

Compound	GI50 (LXFL 529)	GI50 (XF498)	GI50 (KM-20L2)	GI50 (DLD-1)	GI50 (M19-MEL)	GI50 (DMS-114)	GI50 (RXF 631)	GI50 (HOP-18)	GI50 (DMS-273)
C[n+]1c2ccccc2c(CNc2ccc(S(=O)(=O)N=C(N)N)cc2)c2ccccc21	–	–	13.6 µM (inactive)	17.3 µM (inactive)	14.5 µM (inactive)	2.65 µM (inactive)	–	–	2.94 µM (inactive)
CC(C)c1ccc(C(c2ccc(OCC(=O)O)cc2)c2ccc(C(C)C)cc(=O)c2O)c(O)c(=O)c1	4.5 µM (inactive)	2.63 µM (inactive)	3.54 µM (inactive)	3.48 µM (inactive)	4.94 µM (inactive)	2.92 µM (inactive)	5.08 µM (inactive)	9.89 µM (inactive)	3.45 µM (inactive)
CN1OC2OC(=O)OC2[C@H]1[C@H]1O[C@H](c2ccccc2)OC1(C)c1cc(OC(=O)c2ccccc2)ccc1OC(=O)c1ccccc1 (some centres undefined)	> 50 µM (inactive)	> 50 µM (inactive)	> 50 µM (inactive)	> 50 µM (inactive)	> 50 µM (inactive)	> 50 µM (inactive)	> 50 µM (inactive)	–	> 50 µM (inactive)
OCC(O)C(O)C(O)c1nn(-c2ccc(Cl)cc2)c2nc3cc(Cl)c(Cl)cc3nc12 (centres undefined)	33 µM (inactive)	11.1 µM (inactive)	> 100 µM (inactive)	> 100 µM (inactive)	> 100 µM (inactive)	94.4 µM (inactive)	–	31.9 µM (inactive)	> 100 µM (inactive)
O=S1(=O)OCCOS(=O)(=O)C1I	> 100 µM (inactive)	> 100 µM (inactive)	–	> 100 µM (inactive)	> 100 µM (inactive)	> 100 µM (inactive)	> 100 µM (inactive)	–	> 100 µM (inactive)
OCC(O)C(O)C(O)c1nnn[nH]1 (centres undefined)	> 100 µM (inactive)	–	–	> 100 µM (inactive)	> 100 µM (inactive)	> 100 µM (inactive)	–	–	> 100 µM (inactive)
Cc1cc(O)c2c(c1)C(O)(c1ccc3c(c1O)C(=O)c1c(O)cc(C)cc1C3(O)C1OC(CO)C(O)C(O)C1O)c1cccc(O)c1C2=O (centres undefined)	11.9 µM (inactive)	5.08 µM (inactive)	18.6 µM (inactive)	11.5 µM (inactive)	12.2 µM (inactive)	9.91 µM (inactive)	16 µM (inactive)	5.06 µM (inactive)	15.1 µM (inactive)
Clc1ccc(/C=C/c2csnn2)cc1	> 100 µM (inactive)	> 100 µM (inactive)	> 100 µM (inactive)	> 100 µM (inactive)	> 100 µM (inactive)	> 100 µM (inactive)	–	> 100 µM (inactive)	> 100 µM (inactive)
C[C@]12CC[C@H](O)CC1=CC[C@@H]1C2CC[C@]2(C)NC(=O)C(C#N)CC12 (some centres undefined)	> 100 µM (inactive)	> 100 µM (inactive)	> 100 µM (inactive)	> 100 µM (inactive)	> 100 µM (inactive)	> 100 µM (inactive)	–	–	> 100 µM (inactive)
Cc1ccc(-c2nc3ccccc3c(=O)n2NCC2(O)OCC(O)C(O)C2O)cc1 (centres undefined)	> 100 µM (inactive)	–	> 100 µM (inactive)	–	> 100 µM (inactive)	> 100 µM (inactive)	–	–	> 100 µM (inactive)
CC(=O)/C(C)=N/NC(=O)c1ccccc1O	> 10 µM (inactive)	> 10 µM (inactive)	> 10 µM (inactive)	> 10 µM (inactive)	> 10 µM (inactive)	> 10 µM (inactive)	> 10 µM (inactive)	> 10 µM (inactive)	> 10 µM (inactive)
C[C@H]1NC(=O)C2CCCCN2C(=O)CN(C)C(=O)CNC(=O)C2CCCCN2C(=O)[C@@H](NC(=O)c2nc3ccccc3cc2O)[C@@H](C)NC(=O)C2CCCCN2C(=O)CN(C)C(=O)CNC(=O)[C@@H]2CCCCN2C(=O)C1NC(=O)c1nc2ccccc2cc1O (some centres undefined)	0.14 µM (active)	–	0.378 µM (active)	–	0.181 µM (active)	0.23 µM (active)	0.164 µM (active)	–	0.0255 µM (active)
CCCNCc1nc2ccc(Br)cc2c(=O)n1CCC	12.6 µM (inactive)	16.9 µM (inactive)	19.2 µM (inactive)	8.09 µM (inactive)	13.2 µM (inactive)	10.8 µM (inactive)	7.05 µM (inactive)	18.1 µM (inactive)	12.4 µM (inactive)
CC(C)(C)c1ccc(Oc2ccc(C#N)c(C#N)c2)c(C(C)(C)C)c1	31.2 µM (inactive)	12.6 µM (inactive)	44 µM (inactive)	37 µM (inactive)	–	19.6 µM (inactive)	> 60.3 µM (inactive)	> 100 µM (inactive)	15.2 µM (inactive)
COc1cc2c(cc1O)[C@H](Cc1ccc(Oc3cc(C[C@H]4c5cc(OC)c(OC)cc5CCN4C)ccc3OC)cc1)NCC2	13.7 µM (inactive)	11.2 µM (inactive)	10.1 µM (inactive)	–	22.6 µM (inactive)	18.7 µM (inactive)	15.5 µM (inactive)	17.1 µM (inactive)	19.5 µM (inactive)
COc1cccc(NC(=O)CC(=O)N2N=C(N(CCC#N)c3ccc(Cl)cc3)CC2c2ccccc2)c1 (centres undefined)	> 100 µM (inactive)	–	> 100 µM (inactive)	> 100 µM (inactive)	> 100 µM (inactive)	> 100 µM (inactive)	–	> 100 µM (inactive)	> 100 µM (inactive)

From ChEMBL document CHEMBL1201862, “PubChem BioAssay data set” (2004)
